From the NIST ThermoML archive (doi:10.1021/je200822w)
Numbers after ± are expanded uncertainties.

Conditions: 101.33 kPa, Liquid

For `CCCC[N+]1(C)CCCC1.N#CN=C=[N-]` [1-butyl-1-methylpyrrolidinium dicyanamide], which mass density (283.15 K) is on record?
The mass density was 1021.93 ± 0.57 kg/m3.

What about the mass density (293.15 K) of the same compound?
Its mass density is 1016.26 ± 0.55 kg/m3.

And the mass density (303.15 K)?
Its mass density is 1010.64 ± 0.53 kg/m3.

What about the mass density (313.15 K) of the same compound?
Its mass density is 1005.08 ± 0.51 kg/m3.

What about the mass density (323.15 K) of the same compound?
The mass density was 999.56 ± 0.5 kg/m3.

And the mass density (333.15 K)?
The mass density was 994.1 ± 0.51 kg/m3.

What about the mass density (343.15 K) of the same compound?
Its mass density is 988.69 ± 0.53 kg/m3.
